Active and inactive are the calls of the source. The rule behind the calls is not given here. Residues, ends and D or L forms follow the SMILES beside them. *: point of attachment. CH2Cl = ClC*
What was measured:
[1] = target: T1, Threonine aspartase 1 (Homo sapiens) (UniProt Q9H6P5); test: Inhibition of recombinant Taspase1 (unknown origin) at 10 to 1000 uM using [35S]-methionine labeled human MLL1 (2400-2900 residues) as substrate preincubated for 30 mins followed by substrate addition measured after 30 mins by SDS-PAGE based autoradiography
T1 sequence (whole entry): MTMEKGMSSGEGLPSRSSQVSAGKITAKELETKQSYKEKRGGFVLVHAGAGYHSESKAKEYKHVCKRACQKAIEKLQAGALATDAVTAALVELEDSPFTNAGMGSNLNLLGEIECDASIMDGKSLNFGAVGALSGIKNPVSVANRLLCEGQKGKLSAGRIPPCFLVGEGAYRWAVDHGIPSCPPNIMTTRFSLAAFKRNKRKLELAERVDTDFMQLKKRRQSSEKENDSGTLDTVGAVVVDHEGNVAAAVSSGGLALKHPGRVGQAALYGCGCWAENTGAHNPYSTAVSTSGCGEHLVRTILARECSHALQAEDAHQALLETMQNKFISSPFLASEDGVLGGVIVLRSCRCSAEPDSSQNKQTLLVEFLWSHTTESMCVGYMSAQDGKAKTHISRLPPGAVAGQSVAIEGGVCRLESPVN

[2] = target: T1, Threonine aspartase 1 (Homo sapiens); test: Inhibition of recombinant Taspase1 (unknown origin) up to 0.1 mM using [35S]-methionine labeled human MLL1 (2400-2900 residues) as substrate preincubated for 30 mins followed by substrate addition measured after 30 mins by SDS-PAGE based autoradiography
[3] = test system: MCF7; test: Growth inhibition of human MCF7 cells expressing Taspase1; assay type: functional, cell-based
[4] = test system: SF-295; test: Growth inhibition of human SF295 cells expressing Taspase1; assay type: functional, cell-based
[5] = test system: MEF; test: Growth inhibition of SV40 transformed Taspase1 deficient MEF after 2 days by MTT assay; assay type: functional, cell-based; conditions: Mus musculus
[6] = target: T1, Threonine aspartase 1 (Homo sapiens); test: Inhibition of recombinant Taspase1 (unknown origin) at 10 uM using [35S]-methionine labeled human MLL1 (2400-2900 residues) as substrate preincubated for 30 mins followed by substrate addition measured after 30 mins by SDS-PAGE based autoradiography
[7] = test system: MDA-MB-231; test: Growth inhibition of human MDA-MB-231 cells expressing Taspase1; assay type: functional, cell-based
[8] = test system: MEF; test: Growth inhibition of SV40 transformed wild-type Taspase1 expressing MEF after 2 days by MTT ssay; assay type: functional, cell-based; conditions: Mus musculus
[9] = target: T1, Threonine aspartase 1 (Homo sapiens); test: Inhibition of recombinant Taspase1 (unknown origin) at 1 mM using [35S]-methionine labeled human MLL1 (2400-2900 residues) as substrate preincubated for 30 mins followed by substrate addition measured after 30 mins by SDS-PAGE based autoradiography
[10] = test system: Hs-578T; test: Growth inhibition of human Hs578T cells expressing Taspase1; assay type: functional, cell-based
[11] = test system: BT-549; test: Growth inhibition of human BT549 cells expressing Taspase1; assay type: functional, cell-based
[12] = test system: SF-268; test: Growth inhibition of human SF268 cells expressing Taspase1; assay type: functional, cell-based
[13] = test system: U-251; test: Growth inhibition of human U251 cells expressing Taspase1; assay type: functional, cell-based
[14] = test system: SNB-75; test: Growth inhibition of human SNB75 cells expressing Taspase1; assay type: functional, cell-based
[15] = test system: T47D; test: Growth inhibition of human T47D cells expressing Taspase1; assay type: functional, cell-based
[16] = test system: SF-539; test: Growth inhibition of human SF539 cells expressing Taspase1; assay type: functional, cell-based
[17] = target: T1, Threonine aspartase 1 (Homo sapiens); test: Covalent irreversible inhibition of recombinant Taspase1 (unknown origin) at 0.1 mM using [35S]-methionine labeled human MLL1 (2400-2900 residues) as substrate preincubated for 15 to 60 mins followed by substrate addition measured after 30 mins by SDS-PAGE based autoradiography
[18] = target: Caspase-8 (Homo sapiens) (UniProt Q14790); test: Inhibition of recombinant caspase8 (unknown origin) at 1 mM using [35S]-methionine labeled p22 BID as substrate preincubated for 30 mins followed by substrate addition measured after 2 hrs by SDS-PAGE based autoradiography
Sequence of Caspase-8 (Homo sapiens) (Q14790 217-374 limits assumed): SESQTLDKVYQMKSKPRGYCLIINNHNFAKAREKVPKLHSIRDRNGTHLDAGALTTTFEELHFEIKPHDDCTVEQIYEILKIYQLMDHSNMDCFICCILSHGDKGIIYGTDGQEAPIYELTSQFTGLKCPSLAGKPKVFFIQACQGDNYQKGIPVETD
Sequence of Caspase-8 (Homo sapiens) (Q14790 385-479 limits assumed): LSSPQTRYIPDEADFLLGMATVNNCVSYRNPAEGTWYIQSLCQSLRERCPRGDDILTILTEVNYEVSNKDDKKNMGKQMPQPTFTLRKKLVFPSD

[19] = target: T2, Threonine aspartase 1 (Homo sapiens, UniProt Q9H6P5); test: Inhibition of recombinant Taspase1 (unknown origin) using [35S]-methionine labeled human MLL1 (2400-2900 residues) as substrate preincubated for 30 mins followed by substrate addition measured after 30 mins by SDS-PAGE based autoradiography
T2 sequence (Q9H6P5 whole entry): T1 sequence (whole entry)

O=C(O)Cc1ccc(Oc2ccc(CC(=O)O)cc2)cc1
inhibition [1]: inactive

O=[As](O)(O)O
inhibition [2]: inactive

O=[As](O)(O)c1ccc(Cc2ccc([As](=O)(O)O)cc2)cc1
growth inhibition (GI) [3]: Active
growth inhibition (GI) [4]: Active
growth inhibition (GI) [5]: inactive
inhibition [6]: Active
growth inhibition (GI) [7]: Active
growth inhibition (GI) [8]: Active
inhibition [9]: Active
growth inhibition (GI) [10]: Active
growth inhibition (GI) [11]: Active
growth inhibition (GI) [12]: Active
growth inhibition (GI) [13]: Active
growth inhibition (GI) [14]: Active
growth inhibition (GI) [15]: Active
growth inhibition (GI) [16]: Active
inhibition [17]: inactive
inhibition [18]: inactive

CC[C@H](C)[C@H](NC(C)=O)C(=O)N[C@@H](CO)C(=O)N[C@@H](CCC(N)=O)C(=O)N[C@@H](CC(C)C)C(=O)N[C@@H](CC(=O)O)C(=O)CCl (Ac-ISQLD-CH2Cl)
IC50 [19]: > 100 µM

CC[C@H](C)[C@H](NC(=O)[C@H](CCCCN)NC(C)=O)C(=O)N[C@@H](CO)C(=O)N[C@@H](CCC(N)=O)C(=O)N[C@@H](CC(C)C)C(=O)N[C@H](C=O)CC(=O)O (Ac-KISQLD-aldehyde)
IC50 [19]: > 100 µM

Reference: ChEMBL document CHEMBL3991945, “TASPASE1 inhibitors and their uses” (2013)
